Experimental data reported in paper PMC6277767, “Broad and Region-Specific Impacts of the Synthetic Cannabinoid CP 55,940 in Adolescent and Adult Female Mouse Brains” (Frontiers in Molecular Neuroscience, 2018).

Test system: CD1 female mouse brain lipidome
Experiment: Brain-region lipid levels (HPLC/MS/MS lipidomics) 2 h after single i.p. 3 mg/kg CP 55,940 vs vehicle
Type: in vivo
Method: The Bloomington Institutional Animal Care and Use Committee of Indiana University reviewed and approved the animal procedures. Female mice from the CD1 strain were utilized to match our study examining THC’s effects on the brain lipidome ([Leishman et al., 2018]). Mice were given a single i.p. injection of either 3 mg/kg CP or 1:1:18 cremophor:ethanol:saline vehicle (please refer to the section “3 mg/kg CP Is Relevant for Synthetic Cannabinoid Abuse and Has Stronger Effects on the Female Mouse Brain Lipidome During Adolescence” for a justification of dose and use of female mice). Three different age groups were given injections: PND 35 and PND 50 adolescents, and adult mice (PND 113). At least eight mice in each age group received CP and at least eight received vehicle. Matching the THC study time course ([Leishman et al., 2018]), mice were sacrificed via rapid decapitation 2 h after injection. Brains were immediately removed and flash-frozen in liquid nitrogen, and then stored at -80°C until dissections were performed. Brains were dissected on an ice-cold dissection plate into the following regions: STR, HIPP, CER, THAL, CTX, HYP, MID, and STEM. These abbreviations for these brain areas will be used exclusively when discussing the results generated by these specific dissections. Each dissected area was immediately placed in liquid nitrogen and then stored at -80°C until used for lipid extraction.
Tissue extracts were performed as previously described ([Bradshaw et al., 2006]; [Stuart et al., 2013]; [Raboune et al., 2014]; [Leishman et al., 2016a],[b], [2017], [2018]). First, samples were shock frozen in liquid nitrogen, weighed, and transferred to a centrifuge tube. The mass of the largest sample was multiplied by 50 to determine how many milliliters of HPLC-grade methanol (Fisher, Fair Lawn, NJ, United States) to add. Then, samples were spiked with 500 pmol deuterium-labeled NAGly (d8NAGly; Cayman Chemical, Ann Arbor, MI, United States). Samples were placed on ice in darkness for 2 h then individually homogenized and centrifuged at 19,000 × g for 20 min at 20°C. Supernatants were diluted with HPLC water (purified in house) to make a solution of 75% water, 25% supernatant. Lipids were partially purified on C18 solid phase extraction columns (Agilent, Palo Alto, CA, United States). A series of four elutions with 1.5 mL of 60%, 75%, 85%, and 100% methanol were collected ([Stuart et al., 2013]; [Leishman et al., 2016a],[b], [2018]).
As previously described ([Bradshaw et al., 2006]; [Tan et al., 2006]; [Smoum et al., 2010]; [Stuart et al., 2013]; [Tortoriello et al., 2013]; [Raboune et al., 2014]; [Leishman et al., 2016a],[b], [2017], [2018]), samples were analyzed using an Applied Biosystems API 3000 triple quadrupole mass spectrometer with electrospray ionization (Foster City, CA, United States). Using an Agilent XDB-C18 reversed phase analytical column and optimized mobile phase gradients, 20 μL from each elution were chromatographed. Two Shimadzu 10ADvp pumps (Columbia, MD, United States) provided the pressure for gradient elution. Mobile phase A: 20% methanol, 80% water (v/v) and 1 mM ammonium acetate (Sigma, St. Louis, MO, United States). Mobile phase B: 100% methanol, 1 mM ammonium acetate. Every method run began with 0% mobile phase B, reached 100% mobile phase B flowing at 0.2 mL/min, and gradually returned to 0% mobile phase B.
This screening library will be referred to as the lipidome when discussing data from this study. HPLC/MS/MS data were analyzed using Analyst software (Applied Biosystems) ([Bradshaw et al., 2006]; [Tan et al., 2006]; [Stuart et al., 2013]; [Tortoriello et al., 2013]; [Raboune et al., 2014]; [Leishman et al., 2016a],[b], [2017], [2018]). Chromatograms (Supplementary Figure 3) were generated by determining the retention time of analytes from the analytical column with a [M-1] or [M+1] parent peak and a fragmentation peak corresponding to the programmed values. […]

[1] = adult midbrain, 3mg/kg CP 55,940, p .049
[2] = adult midbrain, 3mg/kg CP 55,940, p .055
[3] = adult midbrain, 3mg/kg CP 55,940, p .060
[4] = adult midbrain, 3mg/kg CP 55,940, p .063
[5] = adult midbrain, 3mg/kg CP 55,940, p .073
[6] = adult midbrain, 3mg/kg CP 55,940, p .087
[7] = adult midbrain, 3mg/kg CP 55,940, p .098
[8] = brainstem, PND35, 3 mg/kg CP 55,940 vs Veh
[9] = brainstem, PND35 female mice, 3mg/kg CP 55,940, mean
[10] = brainstem, PND 50, 3 mg/kg CP 55,940

In the case of `CCCCCCC(C)(C)c1ccc([C@@H]2C[C@H](O)CC[C@H]2CCCO)c(O)c1` [CP 55,940], the “PGE2 Direction (relative to Veh)” value [1] is reported as “↑”, the “PGE2 Magnitude (x Veh level)” value [1] is reported as 1.17 and the “6-ketoPGF1α Direction (relative to Veh)” value [2] is reported as “↑”. For the same compound, the “6-ketoPGF1α Magnitude (x Veh level)” value [2] was 1.29, the “N-arachidonoyl ethanolamine, Direction (relative to Veh)” value [3] was “↓” and the “N-arachidonoyl ethanolamine, Magnitude (x Veh level)” value [3] was 0.78. For the same compound, the “N-linoleoyl glycine Direction (relative to Veh)” value [4] was “↓”, the “N-linoleoyl glycine Magnitude (x Veh level)” value [4] was 0.52 and the “N-stearoyl ethanolamine direction (relative to Veh)” value [5] was “↑”. For the same compound, the “N-stearoyl ethanolamine magnitude (x Veh level)” value [5] was 1.44, the “N-linoleoyl serine Direction (relative to Veh)” value [6] was “↓” and the “N-linoleoyl serine Magnitude (x Veh level)” value [6] was 0.79. For the same compound, the “N-arachidonoyl serine Direction (relative to Veh)” value [7] was “↓”, the “N-arachidonoyl serine Magnitude (x Veh level)” value [7] was 0.53 and the “changes in lipid levels that were decreases” value (adult, eight regions) was 78. The “2-arachidonoyl glycerol, Direction (relative to Veh)” value [8] was “↓”, the “2-arachidonoyl glycerol, Magnitude (x Veh level)” value [8] was 0.81 x Veh level and the “2-linoleoyl glycerol Direction (relative to Veh)” value [8] was “↓”. The “2-linoleoyl glycerol Magnitude (x Veh level)” value [8] was 0.82 x Veh level, the “N-arachidonoyl GABA Direction (relative to Veh)” value [8] was “↓” and the “N-arachidonoyl GABA Magnitude (x Veh level)” value [8] was 0.70 x Veh level. The “N-arachidonoyl taurine Direction (relative to Veh)” value [8] was “↓”, the “N-arachidonoyl taurine Magnitude (x Veh level)” value [8] was 0.89 x Veh level and the “N-docosahexaenoyl leucine Direction (relative to Veh)” value [8] was “↑”. The “N-docosahexaenoyl leucine Magnitude (x Veh level)” value [8] was 1.37 x Veh level, the “N-docosahexaenoyl valine Direction (relative to Veh)” value [8] was “↑” and the “N-docosahexaenoyl valine Magnitude (x Veh level)” value [8] was 1.56 x Veh level. For the same compound, the “N-oleoyl leucine Direction (relative to Veh)” value [8] was “↑”, the “N-oleoyl leucine Magnitude (x Veh level)” value [8] was 1.15 x Veh level and the “N-oleoyl proline Direction (relative to Veh)” value [8] was “↑”. For the same compound, the “N-oleoyl proline Magnitude (x Veh level)” value [8] was 1.16 x Veh level, the “N-oleoyl valine Direction (relative to Veh)” value [8] was “↑” and the “N-oleoyl valine Magnitude (x Veh level)” value [8] was 1.26 x Veh level. The “N-palmitoyl leucine, Direction (relative to Veh)” value [8] was “↑”, the “N-palmitoyl leucine, Magnitude (x Veh level)” value [8] was 1.38 x Veh level and the “N-palmitoyl phenylalanine Direction (relative to Veh)” value [8] was “↑”. The “N-palmitoyl phenylalanine Magnitude (x Veh level)” value [8] was 1.22 x Veh level, the “N-palmitoyl proline Direction (relative to Veh)” value [8] was “↑” and the “N-palmitoyl proline Magnitude (x Veh level)” value [8] was 1.20 x Veh level. For the same compound, the “N-palmitoyl tryptophan Direction (relative to Veh)” value [8] was “↓”, the “N-palmitoyl tryptophan Magnitude (x Veh level)” value [8] was 0.82 x Veh level and the “N-palmitoyl valine Direction (relative to Veh)” value [8] was “↑”. The “N-palmitoyl valine Magnitude (x Veh level)” value [8] was 1.40 x Veh level, the “N-stearoyl valine Direction (relative to Veh)” value [8] was “↑” and the “N-stearoyl valine Magnitude (x Veh level)” value [8] was 1.41 x Veh level. For the same compound, the “PGE2 Direction (relative to Veh)” value [8] was “↑”, the “PGE2 Magnitude (x Veh level)” value [8] was 1.15 x Veh level and the 2-arachidonoyl glycerol level [9] was 3.96E-10. For the same compound, the 2-linoleoyl glycerol level [9] was 1.58E-10, the 2-oleoyl glycerol level [9] was 1.53E-09 and the 2-palmitoyl glycerol level [9] was 2.82E-10. The 6-ketoPGF1α level [9] was 1.2E-11, the 11-OH-THC level [9] was “BDL” and the 11-nor-9-carboxyTHC level [9] was “BDL”. The Arachidonic acid level [9] was 1.65E-09, the Cannabidiol level [9] was “BDL” and the Linoleic acid level [9] was 5.88E-10. The “N- stearoyl valine level” value [9] was 5.2E-13, the N-arachidonoyl serine level [9] was 3.04E-12 and the N-arachidonoyl taurine level [9] was 1.88E-11. For the same compound, the N-arachidonoyl tryptophan level [9] was “BDL”, the N-arachidonoyl tyrosine level [9] was 6.37E-13 and the N-docosahexaenoyl serine level [9] was 1.42E-11. The N-docosahexaenoyl tyrosine level [9] was 8.89E-13, the N-docosahexaenoyl valine level [9] was 1.82E-13 and the N-linoleoyl serine level [9] was 2.61E-11. For the same compound, the N-linoleoyl tryptophan level [9] was “BDL”, the N-linoleoyl tyrosine level [9] was “BDL” and the N-nervonoyl valine level [9] was “BDL”. The N-oleoyl proline level [9] was 6.88E-13, the N-oleoyl serine level [9] was 1.44E-10 and the N-oleoyl tyrosine level [9] was 5.15E-13. For the same compound, the N-oleoyl valine level [9] was 5.41E-13, the N-palmitoyl proline level [9] was 9.02E-13 and the N-palmitoyl serine level [9] was 3.95E-11. The N-palmitoyl tryptophan level [9] was 2.02E-13, the N-palmitoyl tyrosine level [9] was 8.2E-13 and the N-palmitoyl valine level [9] was 1.16E-12. For the same compound, the N-stearoyl proline level [9] was 4.63E-13, the N-stearoyl serine level [9] was 2.01E-11 and the N-stearoyl tryptophan level [9] was 2.84E-13. For the same compound, the N-stearoyl tyrosine level [9] was 8.52E-14, the Oleic acid level [9] was 1.63E-09 and the PGE2 level [9] was 2.93E-10. For the same compound, the PGF2α level [9] was 2.4E-10, the PhosphoLEA level [9] was 2.06E-11 and the THC level [9] was “BDL”. For the same compound, the “2-arachidonoyl glycerol level, Mean” value [10] was 2.23E-10, the “2-linoleoyl glycerol level, Mean” value [10] was 2.39E-10 and the “2-oleoyl glycerol level, Mean” value [10] was 3.85E-09. The “2-palmitoyl glycerol level, Mean” value [10] was 8.83E-10, the “6-ketoPGF1α level, Mean” value [10] was 1.35E-11 and the “11-OH-THC level, Mean” value [10] was “BDL”. For the same compound, the “11-nor-9-carboxyTHC level, Mean” value [10] was “BDL”, the “Arachidonic acid level, Mean” value [10] was 1.44E-10 and the “Cannabidiol level, Mean” value [10] was “BDL”. For the same compound, the “Linoleic acid level, Mean” value [10] was 1.4E-10, the “N- stearoyl valine level, Mean” value [10] was 8.37E-14 and the “N-arachidonoyl GABA level, Mean” value [10] was 3.67E-12. The “N-arachidonoyl alanine level, Mean” value [10] was 1.22E-13, the “N-arachidonoyl dopamine level, Mean” value [10] was “BDL” and the “N-arachidonoyl ethanolamine level, Mean” value [10] was 2.44E-11.
